Molecular target: γ-secretase (Homo sapiens, UniProt P49768)
Assay: Cellular γ-secretase assay (inhibition of Aβ42 secretion, AlphaLisa)
Type: cell-based
Conditions: human neuroglioma H4 cells overexpressing human APP695 Swedish double mutation, 24 h compound incubation
Procedure: 2.1) Assay Procedure: Cellular γ-Secretase Assay Human neuroglioma H4 cells overexpressing human APP695 with the Swedish double mutation (K595N/M596L) were plated at 30,000 cells/well/100 μL in 96-well plates in IMDM containing 10% FCS, 0.2 mg/L Hygromycin B and incubated at 37° C., 5% CO2. 3-4 h post plating, compounds are a diluted in media and 50 μL is added as 1.5-fold concentrate to achieve the final concentration. Compound incubation is performed for 24 h. Final doses typically range from 4 μM down to 0.0013 μM in half-log steps resulting in an eight-point dose response curve. Appropriate controls using vehicle only and reference compound were applied to this assay. The final concentration of Me2SO was 0.4%. After incubation at 37° C., 5% CO2, the supernatant was subjected to quantification of secreted Aβ42 by the means of an AlphaLisa® assay kit (Human Amyloid beta 1-42 Kit, Perkin Elmer Inc.). 20 μL of the cell culture supernatant was transferred to an assay plate. Then 10 μL of a mixture of the AlphaLisa® coupled capture antibody and the biotinylated detection antibody was added and incubated for 3 h at RT while softly shaking the assay plate. After a further addition of 20 μL of the Donor beads the assay plate was incubated for 30 min at RT and constant shaking without exposure to direct light. The assay plate was then read on a Paradigm AlphaLisa® Reader using the build-in program with excitation at 680 nm and emission at 570 nm. The measured signals were then used to calculate IC50 values for inhibition of Aβ42 secretion by nonlinear regression fit analysis using XLfit 5.3 software (from IDBS Ltd).

**Q.** How did the IC50 turn out when `Cc1cc(N2C[C@H]3CC[C@@H](C2)[C@@H]3Nc2nc3n(n2)CCCC[C@@H]3Oc2ccc(F)c(F)c2F)ncn1` (single isomer, unassigned) [Example 62] was run?
**A.** The IC50 was 65.8 nM.

**Q.** `COc1cc(N2C[C@H]3CC[C@@H](C2)[C@@H]3Nc2nc3n(n2)CC[C@H]3Oc2cc(F)cc(F)c2)cnn1` (single isomer, unassigned) [Example 1] was tested. Which IC50 did it give?
**A.** Its IC50 is 12.8 nM.

**Q.** With `Cc1cc(N2C[C@H]3CC[C@@H](C2)[C@@H]3Nc2nc3n(n2)CCC[C@H]3Oc2ccc(F)cc2F)ncn1` (single isomer, unassigned) [Example 37] as the molecule, how does the IC50 read?
**A.** Its IC50 is 21.6 nM.

**Q.** How did the IC50 turn out when `Cc1cc(N2C[C@H]3CC[C@@H](C2)[C@@H]3Nc2nc3n(n2)CCC[C@@H]3Oc2cc(F)cc(Cl)c2)cnn1` (single isomer, unassigned) [Example 14] was run?
**A.** Its IC50 is 62.7 nM.

**Q.** With `COc1cc(N2C[C@H]3CC[C@@H](C2)[C@@H]3Nc2nc3n(n2)CCC[C@H]3Oc2ccccc2Cl)cnn1` (single isomer, unassigned) [Example 25] as the molecule, how does the IC50 read?
**A.** The IC50 was 15.7 nM.

**Q.** For `Cc1cc(N2C[C@H]3CC[C@@H](C2)[C@@H]3Nc2nc3n(n2)CC[C@H]3Oc2cc(F)cc(F)c2)ncn1` (single isomer, unassigned) [Example 39], which IC50 is on record?
**A.** Its IC50 is 15.6 nM.

**Q.** For `COc1cc(N2C[C@H]3CC[C@@H](C2)[C@@H]3Nc2nc3n(n2)CCC[C@H]3Oc2cc(F)cc(F)c2)cnn1` (single isomer, unassigned) [Example 9], which IC50 is on record?
**A.** The IC50 was 10.6 nM.

**Q.** For `Cc1cc(N2C[C@H]3CC[C@@H](C2)[C@@H]3Nc2nc3n(n2)CC[C@@H]3Oc2ccc(Cl)cc2)ncn1` (single isomer, unassigned) [Example 28], which IC50 is on record?
**A.** The IC50 was 71.4 nM.

**Q.** `Cc1cc(N2C[C@H]3CC[C@@H](C2)[C@@H]3Nc2nc3n(n2)CC[C@@H]3Oc2cccc(Cl)c2)ncn1` (single isomer, unassigned) [Example 30] was tested. Which IC50 did it give?
**A.** The IC50 was 51.9 nM.

**Q.** With `COc1cc(N2C[C@H]3CC[C@@H](C2)[C@@H]3Nc2nc3n(n2)CC[C@@H]3Oc2cc(F)cc(F)c2)cnn1` (single isomer, unassigned) [Example 2] as the molecule, how does the IC50 read?
**A.** The IC50 was 73.8 nM.

— US12195470B2, “7-phenoxy-N-(3-azabicyclo[3.2.1]octan-8-yl-6,7-dihydro-5H-pyrrolo[1,2-b][1,2,4]triazol-2-amine derivatives and related compounds as gamma- secretase modulators for the treatment of alzheimer's disease” (Hoffmann-La Roche Inc., priority 2018, dated 2025)
